Results published in patent publication US20180318347A1, “METHODS FOR TREATING CANCER” (Agenus Inc., priority 2015, published 2018).
“Also recorded” adds a separate entry of the source. Like-named read-outs stand apart in the source and are kept apart here.

Key:
GBM patients = assay: Adverse events (CTCAE version 4.0) in the same clinical study; assay type: in vivo, human; conditions: 46 patients
Protocol: Baseline evaluation including neurologic assessment, complete blood analysis, and tumor imaging with contrast-enhanced MRI was performed pre-operatively and immediately postoperatively, usually within 48 hours. KPS was graded by the treating provider. Repeat assessment by physical examination and imaging was performed at the completion of initial chemoradiotherapy, just prior to the first vaccine administration. Final eligibility to receive vaccine was determined at this time point. After initiation of vaccine therapy, patients were evaluated every 4 weeks by clinical examination, and every 8 weeks by radiographic imaging with contrast-enhanced MRI. Tumor progression was assessed according to the modified RANO criteria (Table 1). Adverse events were assessed and graded according to the National Cancer Institute Common Terminology Criteria for Adverse Event (CTCAE), version 4.0.

[1] = cited from earlier work
GBM [2] = assay: Published GBM trials used for comparison (Tables 13 and 14, discussion); assay type: in vivo, human; conditions: Rad/TMZ plus Avastin arm
GBM [3] = conditions: cited from earlier work; for Median PFS / Median Survival: Rad/TMZ plus Avastin arm
[4] = AVAglio, Chinot et al, NEJM 2014
[5] = RTOG 0825 Gilbert, et al. NEJM 2014
[6] = RTOG 0825 Trial, Gilbert, NEJM 2013, N = 637

Cn1nnc2c(C(N)=O)ncn2c1=O [temozolomide]
Any Adverse Event: TWZ-related event (GBM patients): 42 (91.3%) no. of patients (%) | Grade 3-4 Event: TWZ-related event (GBM patients): 21 (45.6%) no. of patients (%) | concentrations in the central nervous system relative to plasma concentrations ([1]; following oral administration): approximately 30% | blood-brain barrier penetration ([1]; in vivo): able to cross the blood-brain barrier | bioavailability ([1]; taken orally): greater than 95%

bevacizumab [Avastin]
Estimated Post-Progression Survival (GBM [2]; [4]): 6.2 months | Estimated Post-Progression Survival (GBM [2]; [5]): 5.4 months | Median PFS (GBM [3]; [4]): 10.6 months | Median Survival (GBM [3]; [4]): 16.8 months | Median PFS (GBM [3]; [5]): 10.7 months | Median Survival (GBM [3]; [5]): 16.1 months | Median Survival, Methylated (GBM [3]; [6]): 23.2 months | Median Survival, Unmethylated (GBM [3]; [6]): 14.3 months | Median overall survival, methylated patients (GBM [3]; bevacizumab trials): 25.0 months | Median overall survival, unmethylated patients (GBM [3]; bevacizumab trials): 14.6 months | Benefit of adding bevacizumab to radiation and temozolomide (GBM [3]; newly diagnosed GBM, randomized phase 3 trials vs placebo): no significant benefit; also recorded: no improvement in overall survival compared to placebo
